The values that follow come from patent US6448442B1, “Contrast media” (Amersham Health AS, priority 1999, dated 2002).

Like-named read-outs stand apart in the source and are kept apart here.

Data set [1] in a line: Solubility (remark in Table 2). It is filed as physicochemical. The conditions noted are these: aqueous solution, no viscosity given.
Data set [2] is described as follows: Viscosity at 37° C. (Table 3). It is filed as physicochemical. As to conditions: for Viscosity at 350 mgI/ml (CALCULATED): calculated for 350 mgI/ml.
Data set [3] is described as follows: Viscosity in aqueous solution at 20° C. (Example 82, Tables 1 and 2). The data set is classed as physicochemical. The conditions noted are these: for Viscosity 350 mgI/ml (CALCULATED): calculated for 350 mgI/ml; for Viscosity at 400 mgI/ml (CALCULATED): calculated for 400 mgI/ml. On the procedure: The viscosities in aqueous solution at 20° C. for some further compounds described above were determined and are listed in Table 2. […]

A short description of data set [4]: Determination of viscosity (Example 121, flow time in syringe against reference sample). It is filed as physicochemical. The conditions noted are these: 350 mgI/ml, 20° C. As to the method: The apparatus consisted of a thermostated 10 μl graduated sample syringe connected to a conical shaped 100 μl sample vial. The syringe needle as well as a probe for temperature measurements (±0.2° C.) was inserted through an airtight septum at the top of the vial. Through the septum was also inserted a small tubing connected to an air syringe via a PTFE tubing.
To determine viscosity, 15≧75 μl of the sample liquid was placed at the bottom of the sample vial. The liquid was forced up into the sample syringe by a slight over pressure generated manually by the air syringe. When the syringe was almost filled, the over pressure was released so the liquid, forced only by gravity, could flow freely out from the syringe back into the vial. The time for the liquid surface to pass between the marks of e.g. 5 and 10 μl in the syringe was measured […]
The viscosity is calculated as follows: […]
ηS=Viscosity of the sample
ηR=Viscosity of a reference sample with known viscosity and with similar composition as the sample e.g. Iohexol or Iodixanol dS=Density of sample solution dR=Density of reference solution tS=Average time for sample surface to pass between two marks in the syringe tR=Corresponding time for reference sample
The results of these determinations of viscosity for various of the present Examples and two commercially available X-ray contrast media are shown in Table 1′ below. In all cases, the values refer to concentrations of 350 mgI/ml at a temperature of 20° C.

For data set [5] the following is noted: 350 mgI/ml, 20° C., data from literature; cited from earlier work.

For `OCc1cc(OCC(O)CO)c(I)c(OCC(O)CO)c1I` (stereo not shown) [Example 78, 3,5-Bis-(2,3-dihydroxypropyloxy)-2,4-diiodobenzyl alcohol], the solubility result in data set [1] is recorded as “low solubility”.

Regarding `O=C(Nc1c(I)c(CO)c(I)c(NC(=O)C(O)C(O)CO)c1I)C(O)C(O)CO` (stereo not shown) [Example 79, N,N′-Bis-(2,3,4-trihydroxybutanoyl)-3,5-diamino-2,4,6-triiodobenzyl alcohol], in data set [2] (379 mgI/ml), the Viscosity 37° C. came to 6.9 mPa·s. In addition, the Viscosity at 350 mgI/ml (CALCULATED) in data set [2] is 5.9 mPa·s. In data set [3], the “Viscosity 350 mgI/ml (CALCULATED)” value is on record as 10.4 mPas and the “Viscosity at 400 mgI/ml (CALCULATED)” value is reported as 17.2 mPas. Besides, the “Viscosity 20° C.” value in data set [3] (concentration 379 mgI/ml) is on record as 14.4 mPas.

Consider `O=C(NCC(O)CO)c1c(I)c(CO)c(I)c(NC(=O)C(O)C(O)CO)c1I` (stereo not shown) [Example 80, 5-[N′-(2,3,4-Trihydroxybutanoyl)amino]-3-hydroxymethyl-N-(2,3-dihydroxypropyl)-2,4,6-triiodobenzamide], for which, in data set [2] (444 mgI/ml), the Viscosity 37° C. stood at 11 mPa·s. In addition, the Viscosity at 350 mgI/ml (CALCULATED) in data set [2] is 5.2 mPa·s. In data set [3], the “Viscosity 350 mgI/ml (CALCULATED)” value was 9.4 mPas and the “Viscosity at 400 mgI/ml (CALCULATED)” value is recorded as 14.8 mPas. For the same compound, the “Viscosity 20° C.” value in data set [3] (concentration 444 mgI/ml) was determined as 23 mPas.

Take `O=C(NC(CO)C(O)CO)c1c(I)c(CO)c(I)c(NC(=O)C(O)C(O)CO)c1I` (stereo not shown) [Example 81, 5-[N′-(2,3,4-Trihydroxybutanoyl)-amino]-3-hydroxymethyl-N-(1,3,4-trihydroxybut-2-yl)-2,4,6-triiodobenzamide]: the Viscosity 37° C. in data set [2] (376 mgI/ml) came to 8.9 mPa·s. Moreover, the Viscosity at 350 mgI/ml (CALCULATED) in data set [2] was 6.1 mPa·s. For the same compound, in data set [3], the “Viscosity 350 mgI/ml (CALCULATED)” value is reported as 12.2 mPas and the “Viscosity at 400 mgI/ml (CALCULATED)” value was 21.5 mPas. The “Viscosity 20° C.” value in data set [3] (concentration 376 mgI/ml) worked out at 16.2 mPas.

In turn, `Nc1c(I)c(NC(=O)CO)c(I)c(C(O)C(=O)NC(=O)C(O)CO)c1I` (stereo not shown) [Example 98, N-(2,3-Dihydroxypropionyl)-N′-hydroxyacetyl-3,5-diamino-2,4,6-triiodomandeloamide] showed a Viscosity in data set [4] of 6.9 mPas.

`Nc1c(I)c(NC(=O)C(O)CO)c(I)c(C(O)C(=O)NC(=O)C(O)CO)c1I` (stereo not shown) [Example 99, N,N′-Bis(2,3-Dihydroxypropionyl)-3,5-diamino-2,4,6-triiodomandeloamide]: the Viscosity in data set [4] is 7.4 mPas.

As for `NC(=O)C(O)c1c(I)c(NC(=O)[C@H](O)[C@@H](O)CO)c(I)c(NC(=O)[C@H](O)[C@@H](O)CO)c1I` (stereo partly drawn) [Example 104, N,N′-Bis(2R,3S,4-trihydroxybutyryl)-3,5-diamino-2,4,6-triiodomandeloamide], the Viscosity in data set [4] turned out to be 17.0 mPas.

`NC(=O)C(O)c1c(I)c(NC(=O)CO)c(I)c(NC(=O)[C@H](O)[C@H](O)CO)c1I` (stereo partly drawn) [Example 106, N-(2R,3R,4-Trihydroxybutyryl)-N′-hydroxyacetyl-3,5-diamino-2,4,6-triiodomandeloamide] displayed a Viscosity in data set [4] of 8.8 mPas.

The compound `CC1(C)OCC(CNC(=O)c2c(I)c(NC(=O)C3COC(C)(C)O3)c(I)c(C(C#N)O[Si](C)(C)C)c2I)O1` (stereo not shown) [Example 113, 5-(2,2-Dimethyl-1,3-dioxolane-4-carbamido)-3-(O-trimethylsilyl-cyanomethyl)-N-(2,2-dimethyl-1,3-dioxolane-4-methyl)-2,4,6-triiodobenzamide] yielded a Viscosity in data set [4] of 7.5 mPas.

In data set [4], `NC(=O)C(O)c1c(I)c(NC(=O)C(O)CO)c(I)c(C(=O)NCC(O)CO)c1I` (stereo not shown) [Example 114, 5-(2,3-Dihydroxypropionyl)amino-3-N-(2,3-dihydroxypropyl)carbamido-2,4,6-triiodomandeloamide] gave a Viscosity of 10.1 mPas.

As for `CN(C(=O)CO)c1c(I)c(C(=O)NCC(O)CO)c(I)c(C(=O)NCC(O)CO)c1I` (stereo not shown) [Iomeprol], the Viscosity in data set [5] is on record as 15.4 mPas.

Consider “N,N′-Bis(2,3-dihydroxybutyryl)-3,5-diamino-2,4,6-triiodomandeloamide [Example 101]”, for which the Viscosity in data set [4] is given as 13.4 mPas.

“N-(2R,3S,4-Trihydroxybutyryl)-N′-hydroxyacetyl-3,5-diamino-2,4,6-triiodomandeloamide [Example 100]”: the Viscosity in data set [4] is 9.7 mPas.
